Assay results: ChEMBL document CHEMBL2040766, “Hemisynthesis and antiproliferative properties of mono-[O-(14-benzoylaconine-8-yl)]esters and bis-[O-(14-benzoylaconine-8-yl)]esters” (Eur J Med Chem, 2012)

Tests used:
MCF7 [1] = assay: Cytotoxicity against human MCF7 cells incubated for 24 hrs measured 48 hrs post cell re-growth post compound dose by MTT assay; type: functional, cell-based
A549 = assay: Cytotoxicity against human A549 cells incubated for 24 hrs measured 48 hrs post cell re-growth post compound dose by MTT assay; type: functional, cell-based
HCT-15 [2] = assay: Cytotoxicity against human HCT15 cells incubated for 24 hrs measured 48 hrs post cell re-growth post compound dose by MTT assay; type: functional, cell-based
Mus musculus [3] = assay: Toxicity in NOD.Cg-Prkdcscid Il2rgtmw/SzJ jax 005557 mouse xenografted with human MCF7 cells assessed as mortality incidence at 10 mg/kg, iv administered as weekly four doses starting at day 13 post-tumor grafting relative to vehicle treated control; type: organism-based; parameters: dose 10 mg/kg, route intravenous; settings: in vivo
MCF7 [4] = assay: Antitumor activity against human MCF7 cells xenografted in NOD.Cg-Prkdcscid Il2rgtmw/SzJ jax 005557 mouse assessed as tumor weight at 10 mg/kg, iv administered as 5 doses every 4 days starting at day 9 post-tumor grafting measured on day 45 relative to vehicle treated control; type: functional
Mus musculus [5] = assay: Toxicity in NOD.Cg-Prkdcscid Il2rgtmw/SzJ jax 005557 mouse xenografted with human MCF7 cells assessed as weight loss at 10 mg/kg, iv administered as 5 doses every 4 days starting at day 9 post-tumor grafting relative to vehicle treated control; type: organism-based; parameters: dose 10 mg/kg, route intravenous; settings: in vivo, 96 h
[6] = Toxicity in iv dosed NOD.Cg-Prkdcscid Il2rgtmw/SzJ jax 005557 mouse assessed as maximum tolerated dose at 10 mg/kg, iv administered as 5 doses every 4 days starting at day 9 post-tumor grafting; type: organism-based; parameters: dose 10 mg/kg, route intravenous; settings: in vivo
Mus musculus [7] = assay: Toxicity in NOD.Cg-Prkdcscid Il2rgtmw/SzJ jax 005557 mouse xenografted with human HCT15 cells assessed as induction of toxic effect at 10 mg/kg, iv administered as 5 doses every 3 days starting at day 7 post-tumor grafting relative to vehicle treated control; type: organism-based, HCT-15; parameters: dose 10 mg/kg, route intravenous; settings: in vivo, 72 h
Mus musculus [8] = assay: Toxicity in NOD.Cg-Prkdcscid Il2rgtmw/SzJ jax 005557 mouse xenografted with human HCT15 cells assessed as mortality incidence at 10 mg/kg, iv administered as 5 doses every 3 days starting at day 7 post-tumor grafting relative to vehicle treated control; type: organism-based, HCT-15; parameters: dose 10 mg/kg, route intravenous; settings: in vivo, 72 h
Mus musculus [9] = assay: Toxicity in NOD.Cg-Prkdcscid Il2rgtmw/SzJ jax 005557 mouse xenografted with human MCF7 cells assessed as induction of toxic effect at 10 mg/kg, iv administered as weekly four doses starting at day 13 post-tumor grafting relative to vehicle treated control; type: organism-based; parameters: dose 10 mg/kg, route intravenous; settings: in vivo
Mus musculus [10] = assay: Toxicity in NOD.Cg-Prkdcscid Il2rgtmw/SzJ jax 005557 mouse xenografted with human MCF7 cells assessed as induction of toxic effect at 10 mg/kg, iv administered as 5 doses every 4 days starting at day 9 post-tumor grafting relative to vehicle treated control; type: organism-based; parameters: dose 10 mg/kg, route intravenous; settings: in vivo, 96 h
Mus musculus [11] = assay: Toxicity in NOD.Cg-Prkdcscid Il2rgtmw/SzJ jax 005557 mouse xenografted with human MCF7 cells assessed as mortality incidence at 10 mg/kg, iv administered as 5 doses every 4 days starting at day 9 post-tumor grafting relative to vehicle treated control; type: organism-based; parameters: dose 10 mg/kg, route intravenous; settings: in vivo, 96 h
HCT-15 [12] = assay: Antitumor activity against human HCT15 cells xenografted in NOD.Cg-Prkdcscid Il2rgtmw/SzJ jax 005557 mouse assessed as tumor weight at 10 mg/kg, iv administered as 5 doses every 3 days starting at day 7 post-tumor grafting measured on day 25 relative to vehicle treated control; type: functional
[13] = Toxicity in iv dosed NOD.Cg-Prkdcscid Il2rgtmw/SzJ jax 005557 mouse assessed as maximum tolerated dose at 10 mg/kg, iv administered as weekly four doses starting at day 13 post-tumor grafting; type: organism-based; parameters: dose 10 mg/kg, route intravenous; settings: in vivo
MCF7 [14] = assay: Antitumor activity against human MCF7 cells xenografted in NOD.Cg-Prkdcscid Il2rgtmw/SzJ jax 005557 mouse assessed as tumor weight at 10 mg/kg, iv administered as weekly four doses starting at day 13 post-tumor grafting measured on day 45 relative to vehicle treated control; type: functional
Mus musculus [15] = assay: Toxicity in NOD.Cg-Prkdcscid Il2rgtmw/SzJ jax 005557 mouse xenografted with human HCT15 cells assessed as weight loss at 10 mg/kg, iv administered as 5 doses every 3 days starting at day 7 post-tumor grafting relative to vehicle treated control; type: organism-based, HCT-15; parameters: dose 10 mg/kg, route intravenous; settings: in vivo, 72 h
[16] = Toxicity in iv dosed NOD.Cg-Prkdcscid Il2rgtmw/SzJ jax 005557 mouse assessed as maximum tolerated dose at 10 mg/kg, iv administered as 5 doses every 3 days starting at day 7 post-tumor grafting; type: organism-based; parameters: dose 10 mg/kg, route intravenous; settings: in vivo
Mus musculus [17] = assay: Toxicity in NOD.Cg-Prkdcscid Il2rgtmw/SzJ jax 005557 mouse xenografted with human MCF7 cells assessed as weight loss at 10 mg/kg, iv administered as weekly four doses starting at day 13 post-tumor grafting relative to vehicle treated control; type: organism-based; parameters: dose 10 mg/kg, route intravenous; settings: in vivo

Row | Compound | IC50 (MCF7 [1]) [µM] | IC50 (A549) [µM] | IC50 (HCT-15 [2]) [µM] | also measured
1 | CCN1C[C@]2(COC)[C@H](O)C[C@H](OC)[C@]34C1[C@H]([C@H](OC)[C@H]23)[C@]1(OC(=O)CCCCC(=O)O)[C@H]2[C@@H](OC(=O)c3ccccc3)[C@](O)(C[C@H]24)[C@@H](OC)[C@@H]1O | > 60 | > 60 | > 60 | –
2 | CCN1C[C@]2(COC)[C@H](O)C[C@H](OC)[C@]34C1[C@H]([C@H](OC)[C@H]23)[C@]1(OC(=O)CCC(=O)O)[C@H]2[C@@H](OC(=O)c3ccccc3)[C@](O)(C[C@H]24)[C@@H](OC)[C@@H]1O | > 60 | > 60 | > 60 | –
3 | CCN1C[C@]2(COC)[C@H](O)C[C@H](OC)[C@]34C1[C@H]([C@H](OC)[C@H]23)[C@]1(OC(=O)CCCC(=O)O)[C@H]2[C@@H](OC(=O)c3ccccc3)[C@](O)(C[C@H]24)[C@@H](OC)[C@@H]1O | > 60 | > 60 | > 60 | –
4 | CCN1C[C@]2(COC)[C@H](O)C[C@H](OC)[C@]34C1[C@H]([C@H](OC)[C@H]23)[C@]1(OC(=O)CCCCCC(=O)O)[C@H]2[C@@H](OC(=O)c3ccccc3)[C@](O)(C[C@H]24)[C@@H](OC)[C@@H]1O | > 60 | > 60 | > 60 | –
5 | CCN1C[C@]2(COC)[C@H](O)C[C@H](OC)[C@]34C1[C@H]([C@H](OC)[C@H]23)[C@]1(OC(=O)CCCCCCC(=O)O)[C@H]2[C@@H](OC(=O)c3ccccc3)[C@](O)(C[C@H]24)[C@@H](OC)[C@@H]1O | > 60 | > 60 | > 60 | –
6 | CCN1C[C@]2(COC)[C@H](O)C[C@H](OC)[C@]34C1[C@H]([C@H](OC)[C@H]23)[C@]1(OC(=O)CCCCCCCC(=O)O)[C@H]2[C@@H](OC(=O)c3ccccc3)[C@](O)(C[C@H]24)[C@@H](OC)[C@@H]1O | > 60 | > 60 | > 60 | –
7 | CCN1C[C@]2(COC)[C@H](O)C[C@H](OC)[C@]34C1[C@H]([C@H](OC)[C@H]23)[C@]1(OC(=O)CCCCCCCCC(=O)O)[C@H]2[C@@H](OC(=O)c3ccccc3)[C@](O)(C[C@H]24)[C@@H](OC)[C@@H]1O | > 60 | > 60 | > 60 | –
8 | CCN1C[C@]2(COC)[C@H](O)C[C@H](OC)[C@]34C1[C@H]([C@H](OC)[C@H]23)[C@]1(OC(=O)CCCCCCCCCC(=O)O)[C@H]2[C@@H](OC(=O)c3ccccc3)[C@](O)(C[C@H]24)[C@@H](OC)[C@@H]1O | > 60 | > 60 | > 60 | –
9 | CCN1C[C@]2(COC)[C@H](O)C[C@H](OC)[C@]34C1[C@H]([C@H](OC)[C@H]23)[C@]1(OC(=O)CCC(=O)O[C@]23[C@H]5[C@@H](OC(=O)c6ccccc6)[C@](O)(C[C@H]5[C@@]56C7[C@@H]2[C@H](OC)[C@@H]5[C@](COC)(CN7CC)[C@H](O)C[C@@H]6OC)[C@@H](OC)[C@@H]3O)[C@H]2[C@@H](OC(=O)c3ccccc3)[C@](O)(C[C@H]24)[C@@H](OC)[C@@H]1O | > 60 | > 60 | > 60 | –
10 | CCN1C[C@]2(COC)[C@H](O)C[C@H](OC)[C@]34C1[C@H]([C@H](OC)[C@H]23)[C@]1(OC(=O)CCCC(=O)O[C@]23[C@H]5[C@@H](OC(=O)c6ccccc6)[C@](O)(C[C@H]5[C@@]56C7[C@@H]2[C@H](OC)[C@@H]5[C@](COC)(CN7CC)[C@H](O)C[C@@H]6OC)[C@@H](OC)[C@@H]3O)[C@H]2[C@@H](OC(=O)c3ccccc3)[C@](O)(C[C@H]24)[C@@H](OC)[C@@H]1O | > 60 | > 60 | > 60 | –
11 | CCN1C[C@]2(COC)[C@H](O)C[C@H](OC)[C@]34C1[C@H]([C@H](OC)[C@H]23)[C@]1(OC(=O)CCCCC(=O)O[C@]23[C@H]5[C@@H](OC(=O)c6ccccc6)[C@](O)(C[C@H]5[C@@]56C7[C@@H]2[C@H](OC)[C@@H]5[C@](COC)(CN7CC)[C@H](O)C[C@@H]6OC)[C@@H](OC)[C@@H]3O)[C@H]2[C@@H](OC(=O)c3ccccc3)[C@](O)(C[C@H]24)[C@@H](OC)[C@@H]1O | > 60 | > 60 | > 60 | –
12 | CCN1C[C@]2(COC)[C@H](O)C[C@H](OC)[C@]34C1[C@H]([C@H](OC)[C@H]23)[C@]1(OC(=O)CCCCCC(=O)O[C@]23[C@H]5[C@@H](OC(=O)c6ccccc6)[C@](O)(C[C@H]5[C@@]56C7[C@@H]2[C@H](OC)[C@@H]5[C@](COC)(CN7CC)[C@H](O)C[C@@H]6OC)[C@@H](OC)[C@@H]3O)[C@H]2[C@@H](OC(=O)c3ccccc3)[C@](O)(C[C@H]24)[C@@H](OC)[C@@H]1O | 7.56 | 9.5 | 4.64 | –
13 | CCN1C[C@]2(COC)[C@H](O)C[C@H](OC)[C@]34C1[C@H]([C@H](OC)[C@H]23)[C@]1(OC(=O)CCCCCCC(=O)O[C@]23[C@H]5[C@@H](OC(=O)c6ccccc6)[C@](O)(C[C@H]5[C@@]56C7[C@@H]2[C@H](OC)[C@@H]5[C@](COC)(CN7CC)[C@H](O)C[C@@H]6OC)[C@@H](OC)[C@@H]3O)[C@H]2[C@@H](OC(=O)c3ccccc3)[C@](O)(C[C@H]24)[C@@H](OC)[C@@H]1O | 6.9 | 7.53 | 4.01 | Activity (Mus musculus [3]): Non-toxic; T/C (MCF7 [4]): 36%; T/C (Mus musculus [5]): 0%; MTD at 96 h [6]: 15 mg/kg; Activity (Mus musculus [7]): Non-toxic; Activity (Mus musculus [8]): Non-toxic; Activity (Mus musculus [9]): Non-toxic; Activity (Mus musculus [10]): Non-toxic; Activity (Mus musculus [11]): Non-toxic; T/C (HCT-15 [12]): 49%; MTD [13]: 15 mg/kg; T/C (MCF7 [14]): 56%; T/C (Mus musculus [15]): 9.34%; MTD at 72 h [16]: 15 mg/kg; T/C (Mus musculus [17]): 0%
14 | CCN1C[C@]2(COC)[C@H](O)C[C@H](OC)[C@]34C1[C@H]([C@H](OC)[C@H]23)[C@]1(OC(=O)CCCCCCCC(=O)O[C@]23[C@H]5[C@@H](OC(=O)c6ccccc6)[C@](O)(C[C@H]5[C@@]56C7[C@@H]2[C@H](OC)[C@@H]5[C@](COC)(CN7CC)[C@H](O)C[C@@H]6OC)[C@@H](OC)[C@@H]3O)[C@H]2[C@@H](OC(=O)c3ccccc3)[C@](O)(C[C@H]24)[C@@H](OC)[C@@H]1O | 16.9 | 19.5 | 28 | –
